The test system of experiment [1] is OCI-LY19 GCB DLBCL xenografts. The experiment can be described thus: Anti-tumor activity, OCI-LY19 xenograft model. The format is in vivo, SCID mice. From the text: (§1) Mean tumor volumes (mm^3) ± SEM (N=8/group) are shown where treatment was initiated when mean tumor volume was approximately 200 mm3.
A further experiment relates to DLBCL cell lines. Nature of the experiment: Inhibition of cellular proliferation. The format is cell-based. Conditions: subset of relevant models.
Experiment [2] deals with OCI-LY10 ABC DLBCL xenografts. Nature of the experiment: Anti-tumor activity, OCI-LY10 xenograft model. The format is in vivo, SCID mice.
Source text: as §1

For another experiment, the target named is VEGFR. Nature of the experiment: VEGFR enzyme inhibition. The format is biochemical.
In the next experiment the test system is TMD8 (ABC). Nature of the experiment: Anti-tumor activity, TMD8 xenograft model. The format is in vivo. Conditions: 60 mg/kg; TGI calculated on Day 14.
In a further experiment the test system is WSU. The experiment can be described thus: Anti-tumor activity, WSU xenograft model. The class given is in vivo.
For experiment [3], the system named is PHTX-95L primary DLBCL tumor xenografts. Nature of the experiment: Anti-tumor activity, PHTX-95L xenograft model. The format is in vivo, SCID mice.
Source text: as §1

The next experiment relates to HBL-1 (ABC). Nature of the experiment: Anti-tumor activity, HBL-1 xenograft model. The class given is in vivo.
Where [4] appears, read: daily oral administration of 60 mg/kg.
The mark [5] stands for this setting: 60 mg/kg orally once daily for 21 days.
The mark [6] stands for this setting: 120 mg/kg orally once daily for 21 days.

These results are taken from patent publication EP3134439B1, “ANTI-PSYK ANTIBODY MOLECULES AND USE OF SAME FOR SYK-TARGETED THERAPY” (Millennium Pharmaceuticals, Inc., priority 2014, dated 2015).

Molecules are shown by their SMILES. Marks after values point to notes of the source that are not given here.

As usually defined, the EC50 is the concentration at which the effect is half-maximal. A word on the IC50: it is the concentration at which inhibition is half-maximal. Low readings indicate inhibition by little substance, high ones a need for much substance. In the case of `Cn1cc(-c2nc(N[C@@H]3CCCC[C@@H]3N)c(F)c3c2C(=O)NC3)cn1` [Compound A, 6-((1R,2S)-2-Aminocyclohexylamino)-7-fluoro-4-(1-methyl-1H-pyrazol-4-yl)-1H-pyrrolo[3,4-c]pyridin-3(2H)-one], the TGI was 33%** in experiment [1] (60 mg/kg orally once daily for 14 days, TGI calculated on Day 16); 37% in experiment [1] (setting [4]); 50% in experiment [2] (setting [5]); 59% in experiment [2] (setting [6]); 50% in experiment [2] (setting [4]); 45%* in the experiment on TMD8 (ABC). Further, the TGI in the experiment with WSU (60 mg/kg) was 52%; in the experiment with WSU (setting [4]) it was “approximately 50%”; in experiment [3] (setting [5]), 56%; in experiment [3] (setting [6]), 70%; in experiment [3] (daily oral administration, 120 mg/kg), 70%; in the experiment with HBL-1 (ABC) (60 mg/kg), 32%. Moreover, the TGI in the experiment with HBL-1 (ABC) (120 mg/kg) is given as 36%. In the experiment with DLBCL cell lines, this compound displayed an EC50 of 25 to 400 nM. For the same compound, at VEGFR, the IC50 amounted to 140 nM.
